Drawing on patent US20250122190A1, “HALOGEN-SUBSTITUTED PYRIDAZINONE COMPOUND AND APPLICATION THEREOF” (MEDSHINE DISCOVERY INC., priority 2021, published 2025), this text covers IC50 for seven compounds.

The target of the assay is T1, hTRPC5-T478C (Homo sapiens, UniProt Q9UL62).
T1 sequence (Q9UL62 1-973): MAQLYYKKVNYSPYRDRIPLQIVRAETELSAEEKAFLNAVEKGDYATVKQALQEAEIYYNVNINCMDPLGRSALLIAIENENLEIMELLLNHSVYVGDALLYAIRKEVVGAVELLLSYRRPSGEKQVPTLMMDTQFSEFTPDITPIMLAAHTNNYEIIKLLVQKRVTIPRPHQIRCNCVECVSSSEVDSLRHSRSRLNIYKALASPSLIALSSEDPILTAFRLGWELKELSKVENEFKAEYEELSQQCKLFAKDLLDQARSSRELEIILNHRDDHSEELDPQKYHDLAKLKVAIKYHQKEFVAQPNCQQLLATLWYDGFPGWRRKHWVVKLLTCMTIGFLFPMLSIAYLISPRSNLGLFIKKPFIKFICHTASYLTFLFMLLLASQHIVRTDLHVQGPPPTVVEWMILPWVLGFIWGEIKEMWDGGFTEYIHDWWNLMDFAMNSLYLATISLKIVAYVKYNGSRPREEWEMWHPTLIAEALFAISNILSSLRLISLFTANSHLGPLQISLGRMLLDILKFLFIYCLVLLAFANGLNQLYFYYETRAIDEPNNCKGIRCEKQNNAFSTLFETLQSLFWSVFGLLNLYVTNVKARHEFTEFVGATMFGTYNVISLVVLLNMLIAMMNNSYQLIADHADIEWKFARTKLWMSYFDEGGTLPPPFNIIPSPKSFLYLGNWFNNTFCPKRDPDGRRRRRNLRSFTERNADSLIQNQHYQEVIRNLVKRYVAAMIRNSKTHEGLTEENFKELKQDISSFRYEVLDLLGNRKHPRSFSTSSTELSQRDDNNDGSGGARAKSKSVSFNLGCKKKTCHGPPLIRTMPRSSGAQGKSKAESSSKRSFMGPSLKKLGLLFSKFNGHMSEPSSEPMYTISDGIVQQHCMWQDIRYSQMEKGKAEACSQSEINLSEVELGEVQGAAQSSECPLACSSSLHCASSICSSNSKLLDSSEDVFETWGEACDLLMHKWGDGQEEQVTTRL
Nature of the assay: hTRPC5-T478C patch clamp IC50 assay. It counts as cell-based. Conditions: hTRPC5-T478C-HEK cells, whole-cell patch clamp, Englerin A agonist. The procedure:
Cell culture: hTRPC5-T478C-HEK cells were cultured in a humid environment in 5% CO2 at 37° C.
Cell culture medium ingredients: • DMEM, Supplier: Gibco, Catalog No. 11965-092; • FBS, Supplier: Gibco, Catalog No. 10099-141C, Concentration: 10%; • Pen/Strep, Supplier: Invitrogen, Catalog No. 15140-122, Concentration: 1%; • Zeocin, Supplier: Invitrogen, Catalog No. R25005, Concentration: 200 μg/mL; • Blasticidin S, Supplier: Invitrogen, Catalog No. R21001, Concentration: 5 μg/mL.
In general, the TRPC5-T478C cell line was passaged three times weekly. The dilution factor for each passage was 1:3. Once the cells reached about 80% confluence in the T-75 flask, the cell line was digested with trypsin for about 1 minute and the cell suspension was removed from the flask with a pipette. Depending on the dilution ratio, the removed cell suspension would be transferred to another T-75 flask containing cell culture medium. Note that in order to maintain the logarithmic growth of the cells, the confluence of the cells should be maintained at the subconfluent stage and the cells should be passaged once every 2 to 3 days depending on the proliferation rate of the cell line.
(1) Extracellular fluid: sodium chloride (145 mmol/L), potassium chloride (4 mmol/L), magnesium chloride (1.5 mmol/L), glucose (10 mmol/L), hydroxyethyl piperazineethanesulfonic acid (HEPES, 10 mmol/L). The extracellular fluid was adjusted to pH 7.4 with NaOH, and the osmotic pressure was adjusted to about 305 mOsm/L with pure water or sucrose.
(2) Intracellular fluid: cesium chloride (140 mmol/L), ethylene glycol diethyl ether diamine tetraacetic acid (EGTA, 1 mmol/L), magnesium chloride (2 mmol/L), glucose (10 mmol/L), hydroxyethyl piperazineethanesulfonic acid (HEPES, 10 mmol/L). The intracellular fluid was adjusted to pH 7.2 with […], and the osmotic pressure was adjusted to about 295 mOsm/L with pure water or sucrose.
(3) The extracellular fluid was required to be formulated once a week, and the intracellular fluid was required to be subpackaged and stored at −20° C. after formulation.
Positive reference compounds Englerin A and 2-aminoethoxydiphenyl borate (2-APB) were dissolved in 100% DMSO and stored as a 10 mM working solution after formulation. The test compounds were dissolved in 100% DMSO and stored as a 10 mM working solution after formulation. The final concentration of DMSO in the test solution should be less than 0.3%.
Whole-cell patch clamping was performed at room temperature. The electrical signals recorded using an EPC 10 USB amplifier (HEKA Elektronik, Germany) were low-pass filtered at 3 kHz and finally recorded in PatchMaster 2×90.5 software (HEKA Elektronik, Germany). In this step, the quality control standards were that the cell high-resistance seal was formed at a value greater than 500 MOhms and the detection current was greater than 0.3 nA.
The recording electrode was a borosilicate glass capillary (GC150tF-10, Harvard Apparatus Co., UK), which was pulled by a vertical puller (NARISHIGE PC-10, Japan) and polished. In this step, the quality control standard was that the electrode resistance was between 2 to 5 MΩ.
During whole-cell patch clamp recordings, a continuous filling system (BT100-2J, LongerPump, China) was used to continuously perfuse extracellular fluid. The filling system was mounted on the stage of an upright microscope (FN—S2N, Nikon, Japan), and the filling tip was manually positioned under the microscope.
The voltage instructions for hTRPC5-T478C current amplitude detection were as follows: the cells were clamped as follows: the clamping potential changed in a stepped manner from −40 mV to −80 mV (duration: 50 ms); then the clamping voltage ramped up to +80 mV, and the whole process lasted for 200 ms; then clamping was performed at +80 mV for 50 ms, and finally, the voltage returned to the clamping potential of −40 mV. […]
In the case of `O=c1[nH]ncc(N2CCc3c(ncnc3Sc3ccc(F)cc3C(F)(F)F)C2)c1Cl` [Compound WX002], the IC50 came to 115 nM.
As for `O=c1[nH]ncc(N2CCc3c(ncnc3Oc3ccc(F)cc3Br)C2)c1Cl` [Compound WX004], the figure is 91.4 nM; as for `O=c1[nH]ncc(N2CCc3c(ncnc3Oc3ccc(F)cc3C(F)(F)F)C2)c1Br` [Compound WX009], 304 nM.
As for `CC(F)(F)c1cc(F)ccc1Oc1ncnc2c1CCN(c1cn[nH]c(=O)c1Cl)C2` [Compound WX010], the figure is 196 nM; as for `COCc1nc2c(c(Oc3ccc(F)cc3C(F)(F)F)n1)CCN(c1cn[nH]c(=O)c1Cl)C2` [Compound WX011], 191 nM; as for `O=c1[nH]ncc(N2CCc3c(nc(CO)nc3Sc3ccc(F)cc3C(F)(F)F)C2)c1Cl` [Compound WX012], 16.6 nM.
On to `Nc1nc2c(c(Sc3ccc(F)cc3C(F)(F)F)n1)CCN(c1cn[nH]c(=O)c1Cl)C2` [Compound WX013], for which the IC50 worked out at 15.3 nM. This IC50 and that of the compound before are within 1.5-fold of each other.
